Legend:
Type in all cases: cell-based
human zygotes = assay: DNA damage foci immunostaining in human zygotes/parthenotes
Method: (§1) Embryos, mouse and human, were cultured in Global Total (Life-Global) for the duration of the experiments and with added compounds as outlined below. Incubation in RNA polymerase inhibitors triptolide (1 mM) or alpha amanitin (20 mg/ml) was performed from the 2PN stage (day1) to day3 of human development. Incubation in aphidicolin was performed at 2 mM. […] Mirin was used at a concentration of 50 mM. Olaparib was used to inhibit PARP at a concentration of 10 mM. All experiments were conducted during incubation at 37° C. with 5% CO2 and 19-20% O2. Chemical stock solutions were prepared in DMSO at concentrations at least 1000× higher than the final concentration.
Artificial activation of human MII oocytes was performed using two pulses of 2.7 kV/cm at 50 ms using ECFG21 (Nepagene) in fusion buffer consisting of 0.25 M d-sorbitol buffer containing 0.1 mM calcium acetate, 0.5 mM magnesium acetate, 0.5 mM HEPES, and 1 mg ml^−1 fatty-acid-free BSA as previously described (Tachibana et al., 2013). Thereafter, oocytes were incubated for 3.5-4 h in 10 mg/ml puromycin, followed by a wash step and following culture in Global total.
(§2) Following the experimental exposures, mouse and human embryos were fixed in 2% paraformaldehyde (PFA) and 0.25% Triton X-100 in PBS for 10 minutes at room temperature, serially washed in phosphate-buffered solution (PBS) at room temperature, then stored in PBS at 4° C. until staining and imaging. Embryos were placed in 10-20 ml droplets of primary antibody solution within plastic tissue culture dishes covered with mineral oil for 1 hour at room temperature, serially washed (×2) in PBS containing 0.01% Triton X-100 to prevent embryos sticking to oil, then transferred to 10-20 ml secondary antibody solution and Hoechst (dilution 1:500) for 30 minutes. Embryos were then serially washed (×2) and placed in 5 ml droplets of PBS with 0.5% serum albumin in uncoated glass bottom dishes (Mattek) covered with embryo culture oil for imaging. The following primary antibodies were used across experiments as described above: Oct-4, γH2AX, RPA32, RPA32 S4/S8, RPA32 S33, 53BP1, RAD51, Centromere, and phospho-CHK1. […] The appropriate secondary antibodies conjugated with Alexa Fluor 488, Alexa Fluor 555, CF 568, or Alexa Fluor 647 were diluted at 1:500-1:1000. Ethynyl deoxyuridine (EdU) labeling of zygotes and embryos was performed using the labeling kit (Thermo Fisher Scientific) as described by the manufacturer. 10 mM EdU was added to culture medium for 1 h at the indicated time points, and cells were harvested and fixed thereafter. 5-ethynyl uridine (EU) labeling was performed by incubating day3 cleavage stage embryos for 4 hours in Global total containing 0.2 mM EU.
(§3) Embryos were imaged with confocal microscopy using a Zeiss LSM (LSM 710) at a magnification of 63× and the Zeiss Zen software. Images were obtained using 488-, 543- and 633-nm lasers and bright-field microscopy. The number of confocal sections was adjusted to capture the entire nucleus or the entire embryo according to the experimental design as described above. Cell numbers and staining foci numbers were counted manually. Nuclei were identified by the presence of Hoechst33342. Foci were identified if at least 3× greater intensity than nuclear average, spherical in appearance, and overlapping with Hoechst33342 staining. Inner cell masses were identified by the presence of Oct4 within a blastocyst embryo. Active DNA replication was identified by the presence of EdU. DNA damage was identified by the detection of γH2AX and RPA foci within the nucleus. Mechanisms of DNA repair were identified through the detection of RPA S4/S8, RPA S33, Rad51 and 53BP1 foci within the nucleus.

mouse zygotes = assay: DNA damage foci immunostaining in mouse zygotes/embryos
Method: as §1
(§4) Mouse oocytes were activated at 1-6 hours post retrieval using 2 mM ionomycin (Sigma Aldrich) in Global Total medium for 5 minutes at 37° C. followed by culture in 10 mM puromycin and 5 mg/ml cytochalasin B for 3 hours, then cytochalasinB only for 2 hours and 10 minutes to prevent second polar body extrusion.
as §2, with “phospho-CHK1. Phospho-specific antibodies were quality controlled through ATR dependence of foci formation in mouse zygotes, and for γH2AX also in human zygotes.” for “phospho-CHK1.”
as §3

mouse embryos = assay: mouse preimplantation development and embryo quality
Method: as §1, §4
as §2, with “phospho-CHK1. Phospho-specific antibodies were quality controlled through ATR dependence of foci formation in mouse zygotes, and for γH2AX also in human zygotes.” for “phospho-CHK1.”
as §3

[1] = human, aphidicolin incubation in G2 phase
[2] = mice, aphidicolin incubation in G2 phase

## C[C@@]1(CO)[C@H](O)CC[C@@]2(C)[C@H]1CC[C@H]1C[C@@H]3C[C@@]12CC[C@]3(O)CO [aphidicolin]
Human zygotes; aphidicolin from 15.5 h post activation
  time to formation of foci for γH2AX and RPA32: ≤ 6 h
Human zygotes; human, aphidicolin incubation
  RPA32-positive foci per haploid nucleus, average: 1.8 per haploid nucleus
  γH2AX foci positive for RPA32: Approximately 10%
Human zygotes; [1]
  mean γH2AX foci: 21
  γH2AX foci, range: 0-51
Mouse zygotes; 4-8 cell stage, 48 h post activation
  markers of DNA damage (γH2AX, Rpa32, Rpa32 phosphoS33): increased
Mouse zygotes; G2 arrested zygotes
  time to formation of phospho-RPA32, γH2AX and Rad51 foci after fork stalling: 2 to 4 h
  time to resolution of foci after release from the compound: 1 to 2 h
Mouse zygotes; mice, aphidicolin incubation
  RPA32-positive foci per haploid nucleus, average: 4.5 per haploid nucleus
  γH2AX foci positive for RPA32: Approximately 10%
Mouse zygotes; [2]
  mean γH2AX foci: 43
  γH2AX foci, range: 0-228
Mouse embryos; 48 h post activation, aphidicolin in G2
  micronucleation: increased
Mouse embryos; aphidicolin in G2 phase
  cleaved embryos developed to the blastocyst stage, range: 25%-87%
Mouse embryos; aphidicolin in G2 phase, controls 92%
  cleaved embryos developed to the blastocyst stage: 72%
Mouse embryos; day 5, aphidicolin in G2
  ICM cells marked by Pou5f1: fewer
  total cell number of blastocysts: reduced
